Data as given in ChEMBL document CHEMBL1275309, “Exploring new inhibitors of Plasmodium falciparum purine nucleoside phosphorylase” (Eur J Med Chem, 2010).

target: T1, Purine nucleoside phosphorylase (Homo sapiens, UniProt P00491); experiment: Inhibition of human PNP; conditions: not given
T1 sequence (P00491 whole entry): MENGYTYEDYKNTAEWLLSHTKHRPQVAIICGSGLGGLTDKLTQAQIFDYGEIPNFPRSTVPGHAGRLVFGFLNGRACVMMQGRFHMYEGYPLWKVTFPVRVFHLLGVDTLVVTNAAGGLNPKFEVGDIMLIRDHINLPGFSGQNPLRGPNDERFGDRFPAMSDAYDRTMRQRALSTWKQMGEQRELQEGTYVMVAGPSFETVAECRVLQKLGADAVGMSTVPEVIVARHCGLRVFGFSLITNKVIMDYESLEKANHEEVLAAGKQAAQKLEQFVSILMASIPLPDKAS

| Compound | Kd [µM] |
| --- | --- |
| O=c1[nH]cnc2c(CN3CCCC3)c[nH]c12 | 0.0055 |

target: T2, Purine nucleoside phosphorylase (Plasmodium falciparum, UniProt Q8T9Z7); experiment: Inhibition of Plasmodium falciparum PNP expressed in Escherichia coli BL21(DE3) cells by spectrophotometry; conditions: not given
T2 sequence (Q8T9Z7 whole entry): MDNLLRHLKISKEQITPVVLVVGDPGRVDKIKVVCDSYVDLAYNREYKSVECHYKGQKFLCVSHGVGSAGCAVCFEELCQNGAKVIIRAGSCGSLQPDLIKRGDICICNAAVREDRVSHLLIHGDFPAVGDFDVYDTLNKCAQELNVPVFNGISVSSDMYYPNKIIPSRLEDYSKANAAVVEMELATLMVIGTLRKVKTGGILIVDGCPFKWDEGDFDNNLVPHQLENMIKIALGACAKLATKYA

| Compound | IC50 [µM] | Ki [µM] |
| --- | --- | --- |
| O=C1NC(=O)C(Cc2ccccc2)C(=O)N1 | > 1000 |  |
| O=c1ccn(CCN2CCCC2)c(=O)[nH]1 | 141 | 27 |
| O=c1ccn(CCCN2CCCC2)c(=O)[nH]1 | 230 | 59 |
| O=c1ccn(CCCN2CCC[C@H]2CO)c(=O)[nH]1 | 712 | 136 |
| O=c1ccn(CCCCN2CCCC2)c(=O)[nH]1 | 524 | 105 |
| O=c1ccn(CCCCN2CCC[C@H]2CO)c(=O)[nH]1 | 592 | 113 |
| O=c1cc[nH]c(=O)n1CCN1CCCC1 | 42 | 6 |
| O=c1cc[nH]c(=O)n1CCN1CCC[C@H]1CO | 366 | 75 |
| O=C1NC(=O)N(COCCO)C(=O)C1Cc1cccc(OCc2ccccc2)c1 (stereo not drawn) | > 1000 | 0.0011 |
| O=C1NC(=O)C(Cc2cccc(OCc3ccccc3)c2)C(=O)N1 | > 1000 |  |

target: Uridine phosphorylase 1 (Homo sapiens, UniProt Q16831); experiment: Inhibition of human uridine phosphorylase; conditions: not given
Sequence (Q16831 whole entry): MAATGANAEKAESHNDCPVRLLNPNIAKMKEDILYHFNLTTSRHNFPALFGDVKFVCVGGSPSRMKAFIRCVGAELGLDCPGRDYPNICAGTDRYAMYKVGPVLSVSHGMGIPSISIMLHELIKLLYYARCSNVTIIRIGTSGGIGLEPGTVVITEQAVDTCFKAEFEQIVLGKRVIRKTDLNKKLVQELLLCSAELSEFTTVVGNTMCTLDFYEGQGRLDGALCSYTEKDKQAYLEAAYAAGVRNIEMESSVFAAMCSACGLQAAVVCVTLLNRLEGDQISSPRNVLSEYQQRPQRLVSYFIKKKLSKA

| Compound | Ki [µM] |
| --- | --- |
| O=C1NC(=O)N(COCCO)C(=O)C1Cc1cccc(OCc2ccccc2)c1 (stereo not drawn) | 0.0011 |
| O=C1NC(=O)C(Cc2cccc(OCc3ccccc3)c2)C(=O)N1 | 2.3 |

tested on: Plasmodium falciparum; experiment: Antiplasmodial activity against erythrocytic stages of Plasmodium falciparum 3D7 after 48 hrs by SYBR green assay; type: functional, organism-based; conditions: 3D7, 48 h

| Compound | EC50 [µM] |
| --- | --- |
| O=c1ccn(CCN2CCCC2)c(=O)[nH]1 | > 500 |
| O=c1ccn(CCCN2CCCC2)c(=O)[nH]1 | > 1000 |
| O=c1ccn(CCCN2CCC[C@H]2CO)c(=O)[nH]1 | 375 |
| O=c1ccn(CCCCN2CCCC2)c(=O)[nH]1 | > 1000 |
| O=c1ccn(CCCCN2CCC[C@H]2CO)c(=O)[nH]1 | > 1000 |
| O=c1cc[nH]c(=O)n1CCN1CCCC1 | > 500 |
| O=c1cc[nH]c(=O)n1CCN1CCC[C@H]1CO | > 1000 |
